In patent US20110289043A1, “COMPUTATIONAL METHODS AND COMPOSITIONS” (Brown University Research Foundation, priority 2010, published 2011):

How the values were obtained:
[1] = system: P. falciparum-infected RBCs (iRBCs) and co-cultured uninfected RBCs (uRBCs); experiment: Microfluidic deformability (cell mobility) of RBCs after artesunate drug treatment; type: cell-based, human; settings: for separation resolution between iRBCs and uRBCs: after artesunate drug treatment; for effect on RBC deformability (cell mobility): artesunate 0.01 to 0.1 μg/ml, 2, 4 and 6 hours
Description: FIG. 60 provides cell mobility plots for both infected cells (shown by diamond symbols) and co-cultured uninfected cells (shown by circle symbols) with and without Artesunate drug treatment. The drug effect was traced at 2, 4 and 6 hours after drug treatment. Measurements were done at physiologically relevant dosage from 0.01 to 0.1 μg/ml.
The deformability of both iRBCs and uRBCs were measured at 2, 4 and 6 hours after artesunate drug treatment (FIG. 60). A synchronized culture of rings with ˜15% parasitemia was resuspended at 0.1% hematocrit in malaria culture medium containing 0.01, 0.05 or 0.1 μg/ml of artesunate.
P. falciparum 3D7A parasites (from Malaria Research and Reference Reagent Source, American Type Culture Collection) were cultured in leukocyte-free human RBCs (Research Blood Components, Brighton Mass.) in RPMI 1640 complete medium as described (Trager and Jensen J. parasitol. 2005). Parasites cultures were synchronized by sorbitol lysis (Lambros, C 1979 J. parasitol.) two hours after merozoite invasion.
1× Phosphate buffered saline (PBS) was mixed with 1% w/v Bovine Serum Albumin (BSA) (Sigma-Aldrich, St. Louis, Mo.) as a stock solution and was fresh made on every experimental day. For experiments tracking fluid flow velocity, 200 nm FluoSpheres europium luminescent microspheres (Molecular Probes, Eugene, Oreg.) were used at a final concentration of 5.0×10^−4 percent solids. For experiments involving only healthy RBCs, fresh whole blood (Research Blood Components, Brighton, Mass.) was used at 100 times dilution (i.e. 1 μl whole blood with 99 μl stock solution). For experiments involving parasitized cells, 1 ml of cultured cells were spun down at 1,000 rpm for 5 minute; 1 μl of the pellet was then aliquot to 200 μl stock solution.
10 μl of 1×10^−6M thiazole orange Orange (Invitrogen, Carlsbad, Calif.), which stains the RNA of the cell, was added to the aforementioned 200 μl iRBC solution 20 minutes before the experiment. The infected cells would appear fluorescent under the GFP filter set whereas the uninfected cells were seen as dark shadows.
To control the ambient temperature, the microscope surface was replaced by a heating chamber (Olympus), which was preheated to a desired temperature range (i.e. 30-40° C.) for 30 minutes before the beginning of every experiment. Meanwhile, the PBS-BSA stock solution was injected into the device to coat the PDMS walls to prevent adhesion. This filling step need not be done inside the heating chamber, but the PBS-BSA filled device needed to be placed into the heating chamber at least 5 minutes before loading 10 μL of diluted blood sample. During temperature calibration phase, a thermal meter was used to probe the exact temperature inside the heating chamber. When the temperature needed to be adjusted to a different value, at least 5 minutes of waiting time was required to ensure a new stable ambient temperature.
To apply a constant pressure gradient across the device, the pressure difference between inlet and outlet reservoir was generated hydrostatically by fixing the difference between inlet and outlet water column height (FIG. 55A).
To capture the movement of RBCs inside the microchannels, a CCD camera (Hamamatsu Photonics, C4742-80-12AG, Japan) was connected to the inverted fluorescent microscope (Olympus IX71, Center Valley, Pa.). Images were automatically acquired by IPLab (Scanalytics, Rockville, Md.) at 100 ms time interval and the post-imaging analysis was done using imageJ. The mobility of individual RBCs was defined as the distance the cells moved divide by the time in seconds.

RBCs = experiment: Deformability cytometer: velocity/passage of glutaraldehyde-treated RBCs through constriction channels; type: cell-based, human
Description: FIG. 5B depicts the results of an experiment evaluating the velocity at different glutaraldehyde concentrations of RBCs moving through the two pore geometries. RBCs were treated with the indicated concentrations of glutaraldehyde for 30 minutes in PBS and then washed 3 times. The pressure difference/length was approximately 0.61 Pa/μm.
PBS was mixed with 0.2% w/v Pluronic F-108 (BASF, Mount Olive, N.J.) and 1% w/v Bovine Serum Albumin (BSA) (Sigma-Aldrich, St. Louis, Mo.) as a stock solution to prevent RBC adhesion to the device walls. For the fluorescent bead experiments, 200 nm FluoSpheres europium luminescent microspheres (Molecular Probes, Eugene, Oreg.) diluted to a final concentration of 1.25×10^−5 percent solids were used.
In experiments involving blood, 1 μl of whole blood (−50% hematocrit) was diluted in 100 μl of the PBS-pluronic-BSA solution for all of the experiments. In experiments involving parasites that express GFP, no further treatment was performed. In experiments involving healthy RBCs, 1 μl of whole blood (Research Blood Components, Brighton, Mass.), 1 μl of 50 μg/ml of Cell Tracker Orange (Invitrogen, Carlsbad, Calif.), and 98 μl of PBS were mixed with the indicated concentration of glutaraldehyde and allowed to sit for 30 minutes. The sample was then washed 3 times with the PBS-Pluronic-BSA solution. In experiments involving reticulocytes, 1 μl of whole blood, 89 μl of the PBS-Pluronic-BSA solution, and 10 μl of 1×10^−6M thiazole orange were mixed and allowed to sit for 20 minutes before starting experiments. Videos were obtained in which reticulocytes appear as uniformly fluorescent cells under the GFP filter set, while mature RBCs appear as shadows.
The PBS-Pluronic-BSA solution was pumped through the device for 30 minutes to coat the device walls with Pluronic and BSA. The RBC-PBS-Pluronic-BSA suspension was then injected into the device. Differences in pressure between the two reservoirs were generated hydrostatically by a difference in water column height. […]

WAS−/− T cells = experiment: In vitro Transwell cell migration toward CCL19; type: cell-based, mouse; settings: after seven hours of exposure to CCL19 (100 ng/mL), 5-μm pore Transwell
Description: Cells from the peripheral lymph nodes and the spleen of Balb/c mice and WAS−/− mice on Balb/c background were pooled and enriched using the EasySep Mouse CD8+ T Cell Enrichment Kit from STEMCELL Technologies (British Columbia, Canada). Enrichment was confirmed using fluorescence-activated cell sorting (FACS) by staining the cells with FITC/anti-Thy1.2 and PE/anti-CD8α antibodies (Abs). The memory T cell population was assessed by evaluating the expression of CD44 and CD62L via FACS. T cells in an activation medium with 100 units/mL IL-2 and 1% anti-CD28 Ab were activated by plate-bound anti-CD3 Abs for 4 day at 37° C. The activation medium included RPMI with 10% FBS, 10 mM HEPES (1M), 1% NEAA, 1% sodium pyruvate (100 mM), 50 μM (β-mercaptoethanol, 4 mM L-glutamine, and 100 μg/mL Pen/Strep. Cell activation was verified via FACS measurement of CD25. Enriched WT and WAS−/− T cells in DMEM with 1% BSA and 0.1% Pen/Strep were induced to migrate through polycarbonate Transwell inserts (Costar, Cambridge, Mass.) with 5-μm pores in a 24-well plate toward a CCL19 chemokine source (R&D Systems, Minneapolis, Minn.). Inserts contained 5×10^5 cells in 100 μL of medium, and wells contained 1 mL of medium with either no CCL19 or 100 ng/mL of CCL19. Cells were allowed to migrate for ˜7 hours at 37° C., and those that crossed the membrane were collected and used for MPA studies.

WT T cells [2] = experiment: Micropipette aspiration of CCL19-stimulated migratory T cells; type: cell-based, mouse
Description: Enriched WT and WAS−/− T cells in DMEM with 1% BSA and 0.1% Pen/Strep were induced to migrate through polycarbonate Transwell inserts (Costar, Cambridge, Mass.) with 5-μm pores in a 24-well plate toward a CCL19 chemokine source (R&D Systems, Minneapolis, Minn.). Inserts contained 5×10^5 cells in 100 μL of medium, and wells contained 1 mL of medium with either no CCL19 or 100 ng/mL of CCL19. Cells were allowed to migrate for ˜7 hours at 37° C., and those that crossed the membrane were collected and used for MPA studies.
3×10^5 cells in 100 μL RPMI with 10% FBS and 1% HEPES was stained with 10 μL trypan blue. The mixture was added to 600 μL of either the RPMI medium or the T cell activation medium with IL-2 for naïve and activated T cell testing. Migratory T cells were tested in the medium used for migration. The MPA device was based on the design of Hochmuth et al (18). The aspiration rate and volume were 36 mL/hr and 2 mL, corresponding to a total pressure of ˜400 Pa. The cell movement in the micropipette was recorded with a CCD camera. Aspirations were performed at approximately room temperature.
MPA data were fitting using the half-space model (77) described by the expressions: […]

WT T cells [3] = experiment: FACS analysis of phenotype of T cells induced to migrate by CCL19; type: cell-based, mouse; settings: after CCL19 exposure (100 ng/mL) for seven hours
Description: FIG. 68 depicts results of a FACS analysis of phenotype of naïve WT T cells induced to migrate by the chemokine CCL19. T cells were first gated on PI to exclude dead cells. The cell samples tested were naïve T cells not exposed to CCL 19 (A, D), cells that remained in the insert after CCL19 exposure (100 ng/mL) for seven hours (B, E), and cells that migrated across the insert membrane after the same chemokine treatment (C, F).
Cells from the peripheral lymph nodes and the spleen of Balb/c mice and WAS−/− mice on Balb/c background were pooled and enriched using the EasySep Mouse CD8+ T Cell Enrichment Kit from STEMCELL Technologies (British Columbia, Canada). Enrichment was confirmed using fluorescence-activated cell sorting (FACS) by staining the cells with FITC/anti-Thy1.2 and PE/anti-CD8α antibodies (Abs). The memory T cell population was assessed by evaluating the expression of CD44 and CD62L via FACS. T cells in an activation medium with 100 units/mL IL-2 and 1% anti-CD28 Ab were activated by plate-bound anti-CD3 Abs for 4 day at 37° C. The activation medium included RPMI with 10% FBS, 10 mM HEPES (1M), 1% NEAA, 1% sodium pyruvate (100 mM), 50 μM (β-mercaptoethanol, 4 mM L-glutamine, and 100 μg/mL Pen/Strep. Cell activation was verified via FACS measurement of CD25.

With `C[C@H]1[C@H](OC(=O)CCC(=O)O)O[C@@H]2O[C@@]3(C)CC[C@H]4[C@H](C)CC[C@@H]1[C@@]24OO3` [artesunate] the mobility decrease ([1]; 2 and 4 hours after artesunate treatment) was “smaller and less pronounced mobility decrease”, the mobility decrease ([1]; 6 hours after artesunate treatment, 0.01, 0.05 or 0.1 μg/ml) was 30%-50% and the “separation resolution between iRBCs and uRBCs” value [1] was “almost doubled”. For the same molecule, the “separation resolution between iRBCs and uRBCs” value ([1]; listed as Artesunate) was “doubled”, the “effect on RBC deformability (cell mobility)” value [1] was “stiffening effect on both iRBCs and uRBCs” and the “effect on RBC deformability (cell mobility)” value ([1]; listed as Artesunate) was “significant decrease in cell mobility”.

With `O=CCCCC=O` [glutaraldehyde] the “RBC stiffness / velocity with increasing glutaraldehyde concentration” value (RBCs; 30 minutes treatment in PBS, approximately 0.61 Pa/μm) was “progressively stiffer with decreasing velocity”, the “RBC passage at high glutaraldehyde concentration” value (RBCs; glutaraldehyde concentrations greater than 0.003%) was “most RBCs were held up at the entrance to the channel” and the “RBCs passed through the channels” value (RBCs; glutaraldehyde concentrations less than 0.002%, treatment for 30 minutes) was “more than 95%”.

B1: CCL19: chemokine (R&D Systems) used as chemoattractant for T cells (protein, UniProt Q99731 22-98, looked up)
C-C motif chemokine 19: GTNDAEDCCLSVTQKPIPGYIVRNFHYLLIKDGCRVPAVVFTTLRGRQLCAPPDQPWVERIIQRLQRTSAKMKRRSS
In the case of B1, the cells migrated (WAS−/− T cells) is reported as about 6.4%, the “reduction of modulus from the value measured in the absence of CCL19” value (WT T cells [2]) is reported as “more than 2 times” and the “migrating cells stained CD62L high and CD44 low (naive phenotype)” value (WT T cells [3]) is reported as about 90%.
